The target in the experiment is human APJ receptor (Homo sapiens (Human), UniProt P35414). The experiment can be described thus: [35S]GTPγS binding assay on membranes from CHO cells stably expressing human APJ receptor. Type of experiment: biochemical. The following applies: read-out: Activity hAPJ SPA EC50 IP. In outline:
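Agonist-driven [35S]GTPγS (0.2 nM) binding was measured over 90 min at room temperature on human APJ-expressing CHO membranes with bead capture, in buffer containing 3 μM GDP, 200 mM NaCl and 5 mM MgCl2 (pH 7.5). Excess unlabelled GTPγS (100 μM) gave nonspecific signal; EC50 from non-linear fits.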
In general terms: GTPγS is a poorly hydrolysed GTP analogue; its binding reports G protein activation.
human APJ receptor, sequence (P35414 whole entry): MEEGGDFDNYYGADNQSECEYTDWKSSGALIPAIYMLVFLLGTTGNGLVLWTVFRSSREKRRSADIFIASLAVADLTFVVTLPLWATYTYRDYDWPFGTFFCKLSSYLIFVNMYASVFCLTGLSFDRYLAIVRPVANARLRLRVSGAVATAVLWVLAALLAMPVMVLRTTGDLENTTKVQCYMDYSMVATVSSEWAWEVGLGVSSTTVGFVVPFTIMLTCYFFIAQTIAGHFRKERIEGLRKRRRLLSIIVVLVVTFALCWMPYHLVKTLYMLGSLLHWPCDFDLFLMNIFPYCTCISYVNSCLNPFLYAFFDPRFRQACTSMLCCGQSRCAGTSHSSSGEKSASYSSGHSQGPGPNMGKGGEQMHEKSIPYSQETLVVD
What is called EC50 is the concentration giving half of the maximal effect. Take `COc1cccc(OC)c1-n1c(NS(=O)(=O)[C@@H](C)[C@H](C)c2cnc(C)cn2)nnc1[C@H]1CCCOC1` (single isomer, unassigned) [Example 135.0, (2S,3R)-N-(4-(2,6-dimethoxyphenyl)-5-((R)-tetrahydro-2H-pyran-3-yl)-4H-1,2,4-triazol-3-yl)-3-(5-methylpyrazin-2-yl)butane-2-sulfonamide or (2S,3R)-N-(4-(2,6-dimethoxyphenyl)-5-((S)-tetrahydro-2H-pyran-3-yl)-4H-1,2,4-triazol-3-yl)-3-(5-methylpyrazin-2-yl)butane-2-sulfonamide]: the EC50 turned out to be 0.035 µM.
Regarding `COc1cccc(OC)c1-n1c(NS(=O)(=O)[C@@H](C)[C@@H](OC(C)C)c2ncc(C)cn2)nnc1[C@H]1CCCOC1` (single isomer, unassigned) [Example 136.0, (1S,2S)-N-(4-(2,6-dimethoxyphenyl)-5-((R)-tetrahydro-2H-pyran-3-yl)-4H-1,2,4-triazol-3-yl)-1-isopropoxy-1-(5-methylpyrimidin-2-yl)propane-2-sulfonamide or (1S,2S)-N-(4-(2,6-dimethoxyphenyl)-5-((S)-tetrahydro-2H-pyran-3-yl)-4H-1,2,4-triazol-3-yl)-1-isopropoxy-1-(5-methylpyrimidin-2-yl)propane-2-sulfonamide], the concentration for a half-maximal effect (EC50) came out at 0.13 µM.
As for `COc1cccc(OC)c1-n1c(NS(=O)(=O)[C@@H](C)[C@@H](OC(C)C)c2ncc(C)cn2)nnc1[C@H]1CCCOC1` (single isomer, unassigned) [Example 137.0, (1S,2S)-N-(4-(2,6-dimethoxyphenyl)-5-((R)-tetrahydro-2H-pyran-3-yl)-4H-1,2,4-triazol-3-yl)-1-isopropoxy-1-(5-methylpyrimidin-2-yl)propane-2-sulfonamide or (1S,2S)-N-(4-(2,6-dimethoxyphenyl)-5-((S)-tetrahydro-2H-pyran-3-yl)-4H-1,2,4-triazol-3-yl)-1-isopropoxy-1-(5-methylpyrimidin-2-yl)propane-2-sulfonamide], the figure is 0.0048 µM; as for `COc1ncnc(OC)c1-n1c(NS(=O)(=O)[C@@H](C)[C@H](OC)c2ncc(Cl)cn2)nnc1[C@H]1CCC(C)(C)O1` (single isomer, unassigned) [Example 138.0, (1R,2S)-1-(5-chloropyrimidin-2-yl)-N-(4-(4,6-dimethoxypyrimidin-5-yl)-5-((S)-5,5-dimethyltetrahydrofuran-2-yl)-4H-1,2,4-triazol-3-yl)-1-methoxypropane-2-sulfonamide or (1R,2S)-1-(5-chloropyrimidin-2-yl)-N-(4-(4,6-dimethoxypyrimidin-5-yl)-5-((R)-5,5-dimethyltetrahydrofuran-2-yl)-4H-1,2,4-triazol-3-yl)-1-methoxypropane-2-sulfonamide], 0.12 µM; as for `COc1cccc(OC)c1-n1c(NS(=O)(=O)[C@@H](C)[C@H](O)c2ncc(C)cn2)nnc1[C@H]1CCOC1` (single isomer, unassigned) [Example 141.0, (1R,2S)-N-(4-(2,6-dimethoxyphenyl)-5-((S)-tetrahydrofuran-3-yl)-4H-1,2,4-triazol-3-yl)-1-hydroxy-1-(5-methylpyrimidin-2-yl)propane-2-sulfonamide or (1R,2S)-N-(4-(2,6-dimethoxyphenyl)-5-((R)-tetrahydrofuran-3-yl)-4H-1,2,4-triazol-3-yl)-1-hydroxy-1-(5-methylpyrimidin-2-yl)propane-2-sulfonamide], 0.2 µM.
The figure for `COc1cccc(OC)c1-n1c(NS(=O)(=O)CCc2ccc(Cl)cc2)nnc1[C@@H]1CCCO1` (single isomer, unassigned) [Example 144.0, (S)-2-(4-Chlorophenyl)-N-(4-(2,6-dimethoxyphenyl)-5-(tetrahydrofuran-2-yl)-4H-1,2,4-triazol-3-yl)ethanesulfonamide or (R)-2-(4-chlorophenyl)-N-(4-(2,6-dimethoxyphenyl)-5-(tetrahydrofuran-2-yl)-4H-1,2,4-triazol-3-yl)ethanesulfonamide] is 0.08 µM.
As to `COc1cccc(OC)c1-n1c(NS(=O)(=O)CCc2ccc(Cl)cc2)nnc1[C@@H]1CCCO1` (single isomer, unassigned) [Example 145.0, (S)-2-(4-Chlorophenyl)-N-(4-(2,6-dimethoxyphenyl)-5-(tetrahydrofuran-2-yl)-4H-1,2,4-triazol-3-yl)ethanesulfonamide or (R)-2-(4-chlorophenyl)-N-(4-(2,6-dimethoxyphenyl)-5-(tetrahydrofuran-2-yl)-4H-1,2,4-triazol-3-yl)ethanesulfonamide], the EC50 was determined as 0.83 µM.
As for `COc1cccc(OC)c1-n1c(NS(=O)(=O)CCc2ccc(F)cc2C#N)nnc1[C@@H]1CCCO1` (single isomer, unassigned) [Example 147.0, (S)-2-(2-Cyano-4-fluorophenyl)-N-(4-(2,6-dimethoxyphenyl)-5-(tetrahydrofuran-2-yl)-4H-1,2,4-triazol-3-yl)ethanesulfonamide or (R)-2-(2-cyano-4-fluorophenyl)-N-(4-(2,6-dimethoxyphenyl)-5-(tetrahydrofuran-2-yl)-4H-1,2,4-triazol-3-yl)ethanesulfonamide], the half-maximal effective concentration (EC50) is 0.037 µM.
On to `COc1cccc(OC)c1-n1c(NS(=O)(=O)CCc2ccc(F)cc2C#N)nnc1[C@@H]1CCCO1` (single isomer, unassigned) [Example 148.0, (S)-2-(2-Cyano-4-fluorophenyl)-N-(4-(2,6-dimethoxyphenyl)-5-(tetrahydrofuran-2-yl)-4H-1,2,4-triazol-3-yl)ethanesulfonamide or (R)-2-(2-cyano-4-fluorophenyl)-N-(4-(2,6-dimethoxyphenyl)-5-(tetrahydrofuran-2-yl)-4H-1,2,4-triazol-3-yl)ethanesulfonamide], for which the EC50 was 0.68 µM.
Turning to `COc1cccc(OC)c1-n1c(NS(=O)(=O)[C@@H](C)[C@H](C)c2ncc(C#N)cn2)nnc1[C@H]1CCOC1` (single isomer, unassigned) [Example 173.0, (2S,3R)-3-(5-cyano-2-pyrimidin-yl)-N-(4-(2,6-dimethoxyphenyl)-5-((3R)-tetrahydro-3-furanyl)-4H-1,2,4-triazol-3-yl)-2-butanesulfonamide or (2S,3R)-3-(5-cyano-2-pyrimidinyl)-N-(4-(2,6-dimethoxyphenyl)-5-((3S)-tetrahydro-3-furanyl)-4H-1,2,4-triazol-3-yl)-2-butanesulfonamide], the concentration giving a half-maximal response (EC50) came out at 0.13 µM.
For the compound `COc1cccc(OC)c1-n1c(NS(=O)(=O)[C@@H](C)[C@H](C)c2ncc(C#N)cn2)nnc1[C@H]1CCOC1` (single isomer, unassigned) [Example 174.0, (2S,3R)-3-(5-cyano-2-pyrimidin-yl)-N-(4-(2,6-dimethoxyphenyl)-5-((3R)-tetrahydro-3-furanyl)-4H-1,2,4-triazol-3-yl)-2-butanesulfonamide or (2S,3R)-3-(5-cyano-2-pyrimidinyl)-N-(4-(2,6-dimethoxyphenyl)-5-((3S)-tetrahydro-3-furanyl)-4H-1,2,4-triazol-3-yl)-2-butanesulfonamide], the EC50 was 0.21 µM.
Take `COc1cnc([C@@H](C)[C@H](C)S(=O)(=O)Nc2nnc([C@@H]3COCCO3)n2-c2c(OC)cccc2OC)nc1` (single isomer, unassigned) [Example 175.0, (2S,3R)-N-(4-(2,6-dimethoxyphenyl)-5-((2R)-1,4-dioxan-2-yl)-4H-1,2,4-triazol-3-yl)-3-(5-methoxy-2-pyrimidinyl)-2-butanesulfonamide or (2S,3R)-N-(4-(2,6-dimethoxyphenyl)-5-((2S)-1,4-dioxan-2-yl)-4H-1,2,4-triazol-3-yl)-3-(5-methoxy-2-pyrimidinyl)-2-butanesulfonamide]: the EC50 was found to be 0.0035 µM.
In the case of `COc1cnc([C@@H](C)[C@H](C)S(=O)(=O)Nc2nnc([C@@H]3COCCO3)n2-c2c(OC)cccc2OC)nc1` (single isomer, unassigned) [Example 176.0, (2S,3R)-N-(4-(2,6-dimethoxyphenyl)-5-((2R)-1,4-dioxan-2-yl)-4H-1,2,4-triazol-3-yl)-3-(5-methoxy-2-pyrimidinyl)-2-butanesulfonamide or (2S,3R)-N-(4-(2,6-dimethoxyphenyl)-5-((2S)-1,4-dioxan-2-yl)-4H-1,2,4-triazol-3-yl)-3-(5-methoxy-2-pyrimidinyl)-2-butanesulfonamide], the EC50 worked out at 0.034 µM.
As to `COc1cnc([C@@H](C)[C@H](C)S(=O)(=O)Nc2nnc([C@@H]3COCCO3)n2-c2c(OC)ncnc2OC)nc1` (single isomer, unassigned) [Example 177.0, (2S,3R)-N-(4,-(4,6-dimethoxy-5-pyrimidinyl)-5-((2R)-1,4-dioxan-2-yl)-4H-1,2,4-triazol-3-yl)-3-(5-methoxy-2-pyrimidinyl)-2-butanesulfonamide or (2S,3R)-N-(4-(4,6-dimethoxy-5-pyrimidinyl)-5-((2S)-1,4-dioxan-2-yl)-4H-1,2,4-triazol-3-yl)-3-(5-methoxy-2-pyrimidinyl)-2-butanesulfonamide], the EC50 came out at 0.095 µM.
The figure for `COc1cnc([C@@H](C)[C@H](C)S(=O)(=O)Nc2nnc([C@@H]3COCCO3)n2-c2c(OC)ncnc2OC)nc1` (single isomer, unassigned) [Example 178.0, (2S,3R)-N-(4-(4,6-dimethoxy-5-pyrimidinyl)-5-((2R)-1,4-dioxan-2-yl)-4H-1,2,4-triazol-3-yl)-3-(5-methoxy-2-pyrimidinyl)-2-butanesulfonamide or (2S,3R)-N-(4-(4,6-dimethoxy-5-pyrimidinyl)-5-((2S)-1,4-dioxan-2-yl)-4H-1,2,4-triazol-3-yl)-3-(5-methoxy-2-pyrimidinyl)-2-butanesulfonamide] is 0.29 µM.

(Values after patent US10150760B2, “Compounds for use in preparing heterocyclic triazole agonists of the APJ receptor” (AMGEN INC., priority 2016, dated 2018).)
